Assay results as given in article PMC7595425 (PLoS ONE, 2020).
“And” between values parts separate entries of the source, which are not always exact repeats. Equal values may be shown once.

What was measured:
[1] = target: T1, P-gp (Homo sapiens, UniProt P08183); assay: ATPase assay with P-gp-expressing membrane vesicles (SB-MDR1 […] ATPase Kit); assay type: biochemical
Protocol: The SB-MDR1 […] ATPase Kit, including P-gp-expressing membrane vesicles, was purchased from SOLVO Biotechnology (distributed by KAC Co., Ltd., Kyoto, Japan). This assay kit measures the interaction of test drugs with P-gp. ATPase assay was conducted according to the manufacturer’s instructions and a previous report. Inorganic phosphate liberated by ATP hydrolysis was detected by colorimetric reaction. The optical density (OD) was measured at 590 nm with a microplate reader, Sunrise™ Rainbow (TECAN, Kanagawa, Japan).

[2] = in combination with sertraline; cited from earlier work
[3] = Bidirectional assay across Caco-2 cell monolayers; conditions: human
From the text: Caco-2 cells (RRID:CVCL_0025), a human colon epithelial cancer cell line frequently used as an in vitro intestinal model, were purchased from the American Type Culture Collection (Rockville, MD, USA). […] The receiver side contained transport medium.

[4] = target: T1, P-gp; assay: Efflux rate assay using P-gp-overexpressing LLC-GA5-CoL150 cells; assay type: in vitro ADME; design: host or cells: LLC-GA5-CoL150 (derivative of LLC-PK1 kidney epithelial cells)
Protocol: Efflux assay with LLC-GA5-CoL150 cells was performed as previously described, with some modifications. […] The cells were incubated for 30 min at 4°C, washed twice with ice-cold D-PBS(-), and further incubated in Opti-MEM® for 10 min at 37°C. The cells were then washed three times with ice-cold D-PBS(-), dried, and lysed by adding 200 μL of 0.1 N NaOH solution. […] The efflux rate was calculated according to the following formula.
Effluxrate(pmol/min/mgprotein)={Initialuptakeofpimozide(pmol/mgprotein)−Residualamountofpimozideafter10minincubation(pmol/mgprotein)}/10(min)
Protein was determined colorimetrically using DCTM Protein Assay (BIO-RAD, Hercules, CA), based on absorbance measurement at 700 nm with a microplate reader, Sunrise Rainbow RC (Tecan, Kanagawa, Japan). An aliquot of cell lysate was mixed with 300 μL of ethyl acetate for 10 min in the cold, then 100 μL of the organic phase was taken and evaporated. The residue was dissolved in 300 μL of mobile phase. All samples were applied to MultiScreen® Solvent Filter Plates 0.45 μm Low-Binding Hydrophilic PTFE (Merck, Ireland) and centrifuged at 3,500 rpm for 20 min at 4°C.
To estimate the kinetic parameters of carrier-mediated transport in the efflux assays, the transport rate (J) was fitted to the following Eq (1), containing saturable and nonsaturable-linear terms, by using the nonlinear least-squares regression analysis program, MULTI, as previously reported. J=Jmax×[S]/(Kt+[S])+kd×[S] (1) Where Jmax is the maximum transport rate for the carrier-mediated transport, [S] is the substrate concentration, Kt is the half-saturation concentration, and kd is the first-order rate constant.

[5] = pimozide 0.01 to 100 μM, mean ± S.D.

T1 sequence (P08183 whole entry): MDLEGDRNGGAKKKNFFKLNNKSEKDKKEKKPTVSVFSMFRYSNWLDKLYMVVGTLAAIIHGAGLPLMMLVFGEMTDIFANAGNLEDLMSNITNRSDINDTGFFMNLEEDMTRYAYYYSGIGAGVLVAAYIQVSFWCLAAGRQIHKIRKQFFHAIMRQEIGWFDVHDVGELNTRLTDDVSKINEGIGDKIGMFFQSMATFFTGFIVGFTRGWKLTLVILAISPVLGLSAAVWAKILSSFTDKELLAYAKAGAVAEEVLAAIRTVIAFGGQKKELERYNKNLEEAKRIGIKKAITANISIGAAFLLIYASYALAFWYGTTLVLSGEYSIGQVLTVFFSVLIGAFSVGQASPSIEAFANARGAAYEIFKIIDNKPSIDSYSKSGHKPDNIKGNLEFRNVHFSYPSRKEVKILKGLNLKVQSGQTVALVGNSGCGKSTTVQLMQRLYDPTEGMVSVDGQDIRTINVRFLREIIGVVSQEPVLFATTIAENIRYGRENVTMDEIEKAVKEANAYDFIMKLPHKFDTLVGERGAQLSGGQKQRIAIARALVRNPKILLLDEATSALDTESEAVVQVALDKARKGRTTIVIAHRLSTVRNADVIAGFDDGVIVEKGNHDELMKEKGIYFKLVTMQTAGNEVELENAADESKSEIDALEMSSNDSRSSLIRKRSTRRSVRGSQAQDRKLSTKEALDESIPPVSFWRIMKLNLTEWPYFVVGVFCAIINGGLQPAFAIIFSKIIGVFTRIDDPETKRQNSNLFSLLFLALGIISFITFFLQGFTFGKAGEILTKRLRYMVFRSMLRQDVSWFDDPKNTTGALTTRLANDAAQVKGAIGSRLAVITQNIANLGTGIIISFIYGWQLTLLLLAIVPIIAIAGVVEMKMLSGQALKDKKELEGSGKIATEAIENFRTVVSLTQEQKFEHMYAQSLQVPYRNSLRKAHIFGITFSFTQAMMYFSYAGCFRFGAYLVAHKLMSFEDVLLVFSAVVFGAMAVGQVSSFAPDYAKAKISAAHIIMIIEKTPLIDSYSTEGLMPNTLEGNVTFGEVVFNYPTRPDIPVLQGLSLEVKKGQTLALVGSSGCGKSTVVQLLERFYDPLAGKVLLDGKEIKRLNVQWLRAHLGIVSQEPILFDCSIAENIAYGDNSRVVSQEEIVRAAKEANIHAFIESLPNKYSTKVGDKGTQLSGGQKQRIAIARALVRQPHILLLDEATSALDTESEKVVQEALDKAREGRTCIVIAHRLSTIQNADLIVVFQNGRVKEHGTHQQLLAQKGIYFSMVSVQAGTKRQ

P-gp substrate/inhibitor classification from ATPase assay ([1]; ATPase activity increased concentration-dependently, reduced in the high concentration range): both a P-gp substrate and an inhibitor
pimozide concentration over which ATPase activity decreased ([1]; concentration range 0.04 to 100 μM, concentration-dependent elevation at lower concentrations): about 10 μM
Papp A→B at 120 min, 10 μM [3]: 1.64 ± 0.14 ×10⁻⁶ cm/s
Papp B→A at 120 min, 10 μM [3]: 0.35 ± 0.01 ×10⁻⁶ cm/s
Jmax/Kt (affinity for the transport carrier(s)) [4]: 8.0 μL/min/mg protein
Jmax (maximum transport rate for the carrier-mediated transport) [4, 5]: 84.9 ± 8.9 pmol/min/mg protein
Kt (half-saturation concentration) [4, 5]: 10.6 ± 4.7 µM and 10.6 µM
SMILES: O=c1[nH]c2ccccc2n1C1CCN(CCCC(c2ccc(F)cc2)c2ccc(F)cc2)CC1 [Pimozide]
change of blood half-life of pimozide [2]: without any significant change
increase of AUC of pimozide [2]: 37%
increase of Cmax of pimozide [2]: 35%
